This passage reports EC50 results from patent US9006241B2, “Pyrimidine derivatives” (Noviga Research AB, priority 2011, dated 2015).

What all share (type): cell-based
Assay [1] deals with 8226/Dox40 (doxorubicin-resistant myeloma). Description: FMCA, 8226/Dox40. Particulars: 8226/Dox40 doxorubicin-resistant myeloma cells. An excerpt: (§1) The Fluorometric Microculture Cytotoxicity Assay, FMCA (Larsson, R., et al.; Anticancer Res, 1989, 9, 1111-1119), is a three day non-clonogenic microplate-based cell viability assay used for measurement of the cytotoxic and/or cytostatic effect of compounds in vitro (Lindhagen, E. et al.; Nat. Protoc., 2008, 3, 1364-1369). FMCA represents a valuable method to measure cytotoxicity in a number of cell types, both cell lines and primary cells from patients (Larsson, R., et al.; Int. J. Cancer, 1992, 50, 177-185; Fridborg, H., et al.; Eur. J. Cancer, 1999. 35, 424-432; Dhar, S., et al.; Br. J. Cancer, 1996, 74, 888-896).
(§2) FMCA is based on the principle that fluorescein diacetate (FDA) is converted to the fluorescent probe fluorescein by esterases in the plasma membranes of living cells. For experiments, 96 or 384-well microplates are prepared with compounds and stored at −70° C. until use. Cells are then seeded into the drug-prepared plates and placed in an incubator for 72 h. On the last day of incubation, the plates are washed and a buffer containing FDA is added and incubated with the cells for 45 minutes. Finally the fluorescence per well is measured in a fluorometer and a Survival Index % (SI) for each compound-treated well is calculated with the equation: Compound-treated cells minus blank divided by control cells minus blank. A high SI-value indicates a large percentage of living cells and vice versa.
(§3) For dose-response experiments, 384-well plates were prepared as follows:
(§4) Compounds of the invention as well comparative kinase inhibitors sorafenib sunitinib, dasatinib, pazopanib and a reference compound disclosed in WO 2009/071535 (compound #107) were diluted with PBS to a concentration ten-times higher than the desired starting concentration. Then, a Biomek 2000 liquid handling system was employed to serially dilute the compounds in a deep-well 384-well plate. From this plate, assay plates containing 5 μl compound per well were prepared with the Biomek 2000. Certain compounds precipitated when diluted with PBS, and these compounds were therefore prepared in a 96-well plate manually as described above using culture medium RPMI 1640 instead of PBS.
(§5) The compounds were also tested at five concentrations, with five times serial dilution on the following cell types: CCRF-CEM, hTERT-RPE1 (normal retinal epithelial cells), hRPTEpiC (normal renal cells), and peripheral blood mononuclear cells (PBMC). Each experiment was performed three times, except for PBMC and hRPTEpiC, which were performed twice. SI-values were calculated, graphs were plotted using GraphPadPrism 5.0 (GraphPad Software Inc. La Jolla, Calif.) and IC50-values for each cell type and compound were determined from the curves.
(§6) The compounds of the invention were also tested on further cancer cell lines related to breast cancer (MDA-MB-231; see e.g. Cailleau, R., et al.; J. Natl. Cancer Inst., 1974, 53, 661-674), teniposide-resistant leukemia (CEM/VM1 see e.g. Danks, M., et al.; Cancer Res., 1987, 47, 1297-1301), leukemia (HL-60; see e.g. Collins, S., et al.; Nature, 1977, 270, 347-349), doxorubicin-resistant lung cancer (H69AR; see e.g. Mirski, S., et al.; Cancer Res., 1987, 47, 2594-2598), myeloma (RPMI 8226; see e.g. Matsuoka, Y., et al.; Proc. Soc. Exp. Biol. Med., 1967, 125, 1246-1250), doxorubicin-resistant myeloma (8226/Dox40; see e.g. Dalton, W., et al.; Blood, 1989, 15, 747-752), lymphoma (U-937, see e.g. Sundström, C., et al.; Int. J. Cancer, 1976, 17, 565-577), vincristin-resistant lymphoma (U-937-vcr; see e.g. Botling, J., et al.; Int. J. Cancer, 1994, 58, 269-274), ovarian cancer (A2780; see e.g. Hamilton, T., et al.; Semin. Oncol., 1984, 11, 285-298), doxorubicin-resistant ovarian cancer (A2780/Adr), cisplatin-resistant ovarian cancer (A2780/Cis; see e.g. Behrens, B., et al. Cancer Res. 1987, 47, 414-418), pancreatic cancer (PANC-1, BxPC-3, and MIA PaCa-2; see e.g. Lieber, M., et al.; Int. J. Cancer, 1975, 15, 741-747; Loor, R., et al.; Clin. Lab. […]

The test system of assay [2] is CEM/VM1 (teniposide-resistant leukemia). The experiment in a line: FMCA, CEM/VM1. Particulars: Homo sapiens, CEM/VM1 teniposide-resistant leukemia cells.
Text: as §1, §2, §3, §4, §5, §6

Assay [3] relates to A2780 (ovarian cancer). Description: FMCA, A2780. Particulars: Homo sapiens, A2780 ovarian cancer cells.
Text: as §1, §2, §3, §4, §5, §6

The subject of assay [4] is U-937-vcr (vincristin-resistant lymphoma). The experiment in a line: FMCA, U-937-vcr. Particulars: U-937-vcr vincristin-resistant lymphoma cells.
Text: as §1, §2, §3, §4, §5, §6

Assay [5] concerns A2780/Adr (doxorubicin-resistant ovarian cancer). Description: FMCA, A2780/Adr. Particulars: A2780/Adr doxorubicin-resistant ovarian cancer cells.
Text: as §1, §2, §3, §4, §5, §6

In assay [6] the test system is U-937 (lymphoma). The experiment in a line: FMCA, U-937. Particulars: Homo sapiens, U-937 lymphoma cells.
Text: as §1, §2, §3, §4, §5, §6

The test system of assay [7] is A2780/Cis (cisplatin-resistant ovarian cancer). Description: FMCA, A2780/Cis. Particulars: A2780cis, A2780/Cis cisplatin-resistant ovarian cancer cells.
Text: as §1, §2, §3, §4, §5, §6

Assay [8] concerns RPMI 8226 (myeloma). The experiment in a line: FMCA, RPMI 8226. Particulars: Homo sapiens, RPMI 8226 myeloma cells.
Text: as §1, §2, §3, §4, §5, §6

Assay [9] has as its system H69AR (doxorubicin-resistant lung cancer). Description: FMCA, H69AR. Particulars: Homo sapiens, H69AR doxorubicin-resistant lung cancer cells.
Text: as §1, §2, §3, §4, §5, §6

Assay [10] deals with CCRF-CEM cancer cells - leukemia. The experiment in a line: Fluorometric Microculture Cytotoxicity Assay (FMCA), CCRF-CEM. Particulars: Homo sapiens, 72 h incubation.
Text: as §1, §2
In subsequent experiments, compounds were tested, along with a number of approved cancer drugs (dasatinib, pazopanib, sorafenib, and sunitinib) as described above. Initially, the acute lymphoblastic leukemia cell line CCRF-CEM was used throughout. In the assay plates, medium was added to six empty wells (blank wells) and wells were filled with PBS and cell suspension and served as control wells. SI-values were then calculated for each compound-treated well as described above. All experiments were conducted twice and a new batch of plates was prepared for each experiment.
as §3, §4, §5

pEC50: −log10 of the molar value.

`Cc1ccc2[nH]cc(CCNc3nccc(Nc4ccc5[nH]c(C)cc5c4)n3)c2c1` [Example 9, N^2-[2-(5-methyl-1H-indol-3-yl)ethyl]-N^4-(2-methyl-1H-indol-5-yl)pyrimidine-2,4-diamine]: the negative logarithm of the EC50 (pEC50) was 6.70 in assay [1]; 7.19 in [2]; 6.68 in [3]; 7.34 in assay [4]; 6.09 in [5]; 7.10 in assay [6]. Further, the pEC50 in assay [7] was 6.70; in assay [8], 6.77; in [9], 6.77; in [10], 7.42.
